pIC50: −log10 of the molar value.

The test system of one assay is HIV. Nature of the assay: Table 1 IC50 of the examples (assay method not given; patent concerns inhibiting HIV replication). The assay is classed as cell-based.
Conditions: not given
`COc1c(F)cccc1C(=O)N1CCc2c1cc(C)c([C@H](OC(C)(C)C)C(=O)O)c2-c1cc(F)c2c(c1C)CCCO2` (atropisomer, axis not shown) [Example 45, (S)-2-(tert-Butoxy)-2-((R)-1-(3-fluoro-2-methoxybenzoyl)-4-(8-fluoro-5-methylchroman-6-yl)-6-methylindolin-5-yl)acetic acid] had a pIC50 of 9.00.

The assay is the same for the next values; noted with them: Human immunodeficiency virus 1.
For the compound `Cc1ccc(Cl)cc1C(=O)N1CCc2c1cc(C)c([C@H](OC(C)(C)C)C(=O)O)c2-c1cc(F)c2c(c1C)CCCO2` (atropisomer, axis not shown) [Example 149], the negative-log IC50 (pIC50) was 8.30.
On the same count and under the same terms, then `COc1cc(C(=O)N2CCc3c2cc(C)c([C@H](OC(C)(C)C)C(=O)O)c3-c2ccc3c(c2C)CCCO3)ccc1C` (atropisomer, axis not shown) [Example 184, (S)-2-(tert-Butoxy)-2-((R)-1-(3-methoxy-4-methylbenzoyl)-6-methyl-4-(5-methylchroman-6-yl)indolin-5-yl)acetic acid], with 8.40.
The same measure, in the same setting: then `COc1cccc(C(=O)N2CCc3c2cc(C)c([C@H](OC(C)(C)C)C(=O)O)c3-c2cc(F)c3c(c2C)CCCO3)c1C` (atropisomer, axis not shown) [Example 67, (S)-2-(tert-Butoxy)-2-((R)-4-(8-fluoro-5-methylchroman-6-yl)-1-(3-methoxy-2-methylbenzoyl)-6-methylindolin-5-yl)acetic acid], with 8.30; and `COc1ccc(F)cc1C(=O)N1CCc2c1cc(C)c([C@H](OC(C)(C)C)C(=O)O)c2-c1cc(F)c2c(c1C)CCCO2` (atropisomer, axis not shown) [Example 101, (S)-2-(tert-Butoxy)-2-((R)-1-(5-fluoro-2-methoxybenzoyl)-4-(8-fluoro-5-methylchroman-6-yl)-6-methylindolin-5-yl)acetic acid], with 8.30; and `COc1ccc(C(=O)N2CCc3c2cc(C)c([C@H](OC(C)(C)C)C(=O)O)c3-c2ccc(C)cc2)c(C)c1` [Example 10, (S)-2-(tert-Butoxy)-2-(1-(4-methoxy-2-methylbenzoyl)-6-methyl-4-(p-tolyl)indolin-5-yl)acetic acid], with 7.92.
Turning to `Cc1ccc(-c2c3c(cc(C)c2[C@H](OC(C)(C)C)C(=O)O)N(C(=O)c2ccccc2F)CC3)cc1` [Example 18, (S)-2-(tert-Butoxy)-2-(1-(2-fluorobenzoyl)-6-methyl-4-(p-tolyl)indolin-5-yl)acetic acid], the pIC50 is 7.96.
`Cc1cc2c(c(-c3cc(F)c4c(c3C)CCCO4)c1[C@H](OC(C)(C)C)C(=O)O)CCN2C(=O)c1ccccc1Cl` (atropisomer, axis not shown) [Example 98, (S)-2-(tert-Butoxy)-2-((R)-1-(2-chlorobenzoyl)-4-(8-fluoro-5-methylchroman-6-yl)-6-methylindolin-5-yl)acetic acid] showed a pIC50 of 8.70.
Same read-out and setting: under `COc1cc(C(=O)N2CCc3c2cc(C)c([C@H](OC(C)(C)C)C(=O)O)c3-c2cc(F)c3c(c2C)CCCO3)ccc1Cl` (atropisomer, axis not shown) [Example 123, (S)-2-(tert-Butoxy)-2-((R)-1-(4-chloro-3-methoxybenzoyl)-4-(8-fluoro-5-methylchroman-6-yl)-6-methylindolin-5-yl)acetic acid] stands 8.52; under `CNC(=O)c1cccc(C(=O)N2CCc3c2cc(C)c([C@H](OC(C)(C)C)C(=O)O)c3-c2cc(F)c3c(c2C)CCCO3)c1` (atropisomer, axis not shown) [Example 153, (S)-2-(tert-Butoxy)-2-((R)-4-(8-fluoro-5-methylchroman-6-yl)-6-methyl-1-(3-(methylcarbamoyl)benzoyl)indolin-5-yl)acetic acid], 6.90.
Compound `Cc1ccc(-c2c3c(cc(C)c2[C@H](OC(C)(C)C)C(=O)O)N(C(=O)OC(C)(C)C)CC3)cc1` [Example 24, (S)-2-(tert-Butoxy)-2-(1-(tert-butoxycarbonyl)-6-methyl-4-(p-tolyl)indolin-5-yl)acetic acid] showed a negative-log IC50 (pIC50) of 7.33. This pIC50 is 0.43 log units higher than that of the compound before.
Still for that read-out and setting: then `Cc1ccc(-c2c3c(cc(C)c2C(OC(C)(C)C)C(=O)O)N(C(=O)c2ccc(F)c(F)c2)CC3)cc1` (stereo not drawn) [Example 3, 2-(tert-Butoxy)-2-(1-(3,4-difluorobenzoyl)-6-methyl-4-(p-tolyl)indolin-5-yl)acetic acid], with 7.92.
Same read-out and setting: under `Cc1cc2c(ccn2Cc2ccc(F)c(F)c2)c(-c2cc(F)c3c(c2C)CCCO3)c1[C@H](OC(C)(C)C)C(=O)O` (atropisomer, axis not shown) [Example 198, (S)-2-(tert-Butoxy)-2-((R)-1-(3,4-difluorobenzyl)-4-(8-fluoro-5-methylchroman-6-yl)-6-methyl-1H-indol-5-yl)acetic acid] stands 6.82; under `Cc1cc2c(c(-c3cc(F)c4c(c3C)CCCO4)c1[C@H](OC(C)(C)C)C(=O)O)CCN2C(=O)c1ccc(Cl)c(Cl)c1` (atropisomer, axis not shown) [Example 61, (S)-2-(tert-Butoxy)-2-((R)-1-(3,4-dichlorobenzoyl)-4-(8-fluoro-5-methylchroman-6-yl)-6-methylindolin-5-yl)acetic acid], 7.77.
`Cc1cc2c(c(-c3cc(F)c4c(c3C)CCCO4)c1[C@H](OC(C)(C)C)C(=O)O)CCN2C(=O)c1cc(Cl)ccc1F` (atropisomer, axis not shown) [Example 145, (S)-2-(tert-Butoxy)-2-((R)-1-(5-chloro-2-fluorobenzoyl)-4-(8-fluoro-5-methylchroman-6-yl)-6-methylindolin-5-yl)acetic acid] gave a pIC50 of 7.85.
Same read-out and setting: then `Cc1cc2c(c(-c3cc(F)c4c(c3C)CCCO4)c1[C@H](OC(C)(C)C)C(=O)O)CCN2C(=O)c1cc(F)ccc1F` (atropisomer, axis not shown) [Example 109, (S)-2-(tert-Butoxy)-2-((R)-1-(2,5-difluorobenzoyl)-4-(8-fluoro-5-methylchroman-6-yl)-6-methylindolin-5-yl)acetic acid], with 7.96; and `Cc1cc2c(c(-c3cc(F)c4c(c3C)CCCO4)c1[C@H](OC(C)(C)C)C(=O)O)CCN2C(=O)c1ccc(C(F)(F)F)c(F)c1` (atropisomer, axis not shown) [Example 140, (S)-2-(tert-Butoxy)-2-((R)-1-(3-fluoro-4-(trifluoromethyl)benzoyl)-4-(8-fluoro-5-methylchroman-6-yl)-6-methylindolin-5-yl)acetic acid], with 7.85.
Same read-out and setting: under `Cc1cc2c(c(-c3ccc4c(c3C)CCCO4)c1[C@H](OC(C)(C)C)C(=O)O)CCN2C(=O)c1cccc2c1OCCO2` (atropisomer, axis not shown) [Example 182, (S)-2-(tert-Butoxy)-2-((R)-1-(2,3-dihydrobenzo[b][1,4]dioxine-5-carbonyl)-6-methyl-4-(5-methylchroman-6-yl)indolin-5-yl)acetic acid] stands 8.30; under `Cc1ccc(-c2c3c(cc(C)c2[C@H](OC(C)(C)C)C(=O)O)N(C(=O)c2ccccn2)CC3)cc1` [Example 38, (S)-2-(tert-Butoxy)-2-(6-methyl-1-picolinoyl-4-(p-tolyl)indolin-5-yl)acetic acid], 7.74.
On the same count and under the same terms, then `Cc1ccc(-c2c3c(cc(C)c2[C@H](OC(C)(C)C)C(=O)O)N(C(=O)NC2CCCCC2)CC3)cc1` [Example 37, (S)-2-(tert-Butoxy)-2-(1-(cyclohexylcarbamoyl)-6-methyl-4-(p-tolyl)indolin-5-yl)acetic acid], with 7.10.
`COc1ccc(C)c(C(=O)N2CCc3c2cc(C)c([C@H](OC(C)(C)C)C(=O)O)c3-c2cc(F)c3c(c2C)CCCO3)c1` (atropisomer, axis not shown) [Example 107, (S)-2-(tert-Butoxy)-2-((R)-4-(8-fluoro-5-methylchroman-6-yl)-1-(5-methoxy-2-methylbenzoyl)-6-methylindolin-5-yl)acetic acid] showed a negative logarithm of the IC50 (pIC50) of 8.30.
On the same count and under the same terms, then `COc1ccc(C(=O)N2CCc3c2cc(C)c([C@H](OC(C)(C)C)C(=O)O)c3-c2cc(F)c3c(c2C)CCCO3)cc1C` (atropisomer, axis not shown) [Example 102, (S)-2-(tert-Butoxy)-2-((R)-4-(8-fluoro-5-methylchroman-6-yl)-1-(4-methoxy-3-methylbenzoyl)-6-methylindolin-5-yl)acetic acid], with 8.70; and `COc1ccc(C(=O)N2CCc3c2cc(C)c([C@H](OC(C)(C)C)C(=O)O)c3-c2cc(C(F)(F)F)c3c(c2C)CCCO3)cc1C` (atropisomer, axis not shown) [Example 196, (S)-2-(tert-Butoxy)-2-((R)-1-(4-methoxy-3-methylbenzoyl)-6-methyl-4-(5-methyl-8-(trifluoromethyl)chroman-6-yl)indolin-5-yl)acetic acid], with 6.44.
Same read-out and setting: then `Cc1ccc(-c2c3c(cc(C)c2C(OC(C)(C)C)C(=O)O)N(C(=O)OCc2ccccc2)CCC3)cc1` (stereo not drawn) [Example 208, 2-(1-((Benzyloxy)carbonyl)-7-methyl-5-(p-tolyl)-1,2,3,4-tetrahydroquinolin-6-yl)-2-(tert-butoxy)acetic acid], with 5.95; and `COc1ccc(C(=O)N2CCc3c2cc(C)c([C@H](OC(C)(C)C)C(=O)O)c3-c2ccc3c(c2C)CCCO3)cc1F` (atropisomer, axis not shown) [Example 187, (S)-2-(tert-Butoxy)-2-((R)-1-(3-fluoro-4-methoxybenzoyl)-6-methyl-4-(5-methylchroman-6-yl)indolin-5-yl)acetic acid], with 8.22.
The same measure, in the same setting: then `Cc1cc2c(c(-c3cc(F)c4c(c3C)CCCO4)c1[C@H](OC(C)(C)C)C(=O)O)CCN2C(=O)c1cccc(C(=O)N2CCCCC2)c1` (atropisomer, axis not shown) [Example 164, (S)-2-(tert-Butoxy)-2-((R)-4-(8-fluoro-5-methylchroman-6-yl)-6-methyl-1-(3-(piperidine-1-carbonyl)benzoyl)indolin-5-yl)acetic acid], with 6.75.
`Cc1ccc(-c2c3c(cc(C)c2C(OC(C)(C)C)C(=O)O)N(C(=O)C2CCCCC2)CC3)cc1` (stereo not drawn) [Example 8, 2-(tert-Butoxy)-2-(1-(cyclohexanecarbonyl)-6-methyl-4-(p-tolyl)indolin-5-yl)acetic acid] had a pIC50 of 7.82.

Values taken from US20190284136A1, “INDOLINE DERIVATIVES” (ViiV HEALTHCARE UK LIMITED, priority 2016, published 2019).
